Source: patent US11542262B2, “Phosphatidylinositol 3-kinase inhibitors” (NANJING ZHENGXIANG PHARMACEUTICALS CO., LTD., priority 2019, dated 2023)
≈ marks a conversion by molar mass, not a printed value.

How the values were obtained:
[1] = target: PI3Kδ (Homo sapiens, UniProt O00329); experiment: ADP-Glo luminescent assay, enzymatic activity of PI3K delta; format: biochemical; conditions: ATP 25 μM; read-out: PI3K delta (nM) inhibitory activity (IC50)
Experimental: Enzymatic activity of PI3K isoforms: Enzymatic activity of the class I PI3K isoforms in the presence of the compounds of Table 1 was measured using ADP-Glo luminescent assay against PI3Kα, PI3Kβ, PI3Kδ and PI3Kγ with ATP concentration at 25 μM. […] The compounds would be tested from 1 or 10 μM, 3-fold dilution for 10 doses, in duplicate.
(§1) Compound preparation: Dilute a compound to 100× of the final desired highest inhibitor concentration in reaction by 100% DMSO. Transfer 100 μl of this compound dilution to a well in a 96-well plate and serially dilute it with DMSO for a total of 10 concentrations.
(§2) Kinase reaction: Prepare a solution of PI3K in 1× kinase buffer at 2-fold the final concentration of each reagent in the assay. Control wells contain 1× kinase buffer without enzyme. Prepare substrate solution of PIP2 substrate and ATP in 1× kinase reaction buffer at 2-fold of the final concentration. Add concentration substrate solution to each well to the final concentration. Cover the assay plate, shake to mix, and incubate at room temperature for 1 hour. Add 5 μl of ADP-Glo reagent to each well to stop the reaction. Mix briefly with a quick spin, shake slowly on the shaker for 120 min. Add 10 ul Kinase Detection Reagent to each well, shake 1 min, equilibrate for 30 min before reading on a luminescence plate reader.
(§3) Data Analysis: Convert RLU values to percent inhibition values as Percent inhibition=(max−sample RLU)/(max−min)*100. “min”—no enzyme control; “max”—DMSO control. Fit the data in XLFit excel add-in version 5.4.0.8 to obtain IC50 values. Y=Bottom+(Top−Bottom)/(1+(IC50/X)^HillSlope).

[2] = Pharmacokinetics in dogs; format: in vivo; conditions: IV bolus at 1 mg/kg and PO at 5 mg/kg; for bioavailability / clearance / half-life: male, dog, plasma; for bioavailability: beagle, oral, 5 mg/kg, read-out: F (%) oral bioavailability
Experimental: Dosing solutions were prepared at 1 mg/mL in 5% DMSO/40% PEG400/55% water. A dosing solution was administered to male beagle dogs (Approximately 9-14 kg, 3 dogs each group) via intravenous (IV) bolus at 1 mg/kg and by oral gavage (PO) at 5 mg/kg. The dosing volume was 1 mL/kg for IV administration and 5 mL/kg for oral gavage. Blood samples (˜0.3 mL each time point) were collected into tubes containing potassium ethylenediaminetetraacetic acid (K2EDTA) as the anticoagulant at 0.033, 0.083, 0.25, 0.5, 1, 2, 4, 8 and 24 hours post dose for IV administration and 0.083, 0.25, 0.5, 1, 2, 4, 8 and 24 hours post dose for PO administration. The blood samples were then centrifuged for 5 minutes in a centrifuge refrigerated at 4° C. The resultant plasma samples were analyzed using LC/MS/MS to determine concentrations of a test compound. Non-compartmental model with WinNonlin (Phoenix™, version 6.1) software was used to calculate pharmacokinetic (PK) parameters.

[3] = target: PI3Kβ (Homo sapiens, UniProt P42338); experiment: ADP-Glo luminescent assay, enzymatic activity of PI3K beta; format: biochemical; conditions: ATP 25 μM; read-out: PI3K beta (nM) inhibitory activity (IC50)
Chain of PI3Kβ (P42338 whole entry, species assumed, canonical isoform): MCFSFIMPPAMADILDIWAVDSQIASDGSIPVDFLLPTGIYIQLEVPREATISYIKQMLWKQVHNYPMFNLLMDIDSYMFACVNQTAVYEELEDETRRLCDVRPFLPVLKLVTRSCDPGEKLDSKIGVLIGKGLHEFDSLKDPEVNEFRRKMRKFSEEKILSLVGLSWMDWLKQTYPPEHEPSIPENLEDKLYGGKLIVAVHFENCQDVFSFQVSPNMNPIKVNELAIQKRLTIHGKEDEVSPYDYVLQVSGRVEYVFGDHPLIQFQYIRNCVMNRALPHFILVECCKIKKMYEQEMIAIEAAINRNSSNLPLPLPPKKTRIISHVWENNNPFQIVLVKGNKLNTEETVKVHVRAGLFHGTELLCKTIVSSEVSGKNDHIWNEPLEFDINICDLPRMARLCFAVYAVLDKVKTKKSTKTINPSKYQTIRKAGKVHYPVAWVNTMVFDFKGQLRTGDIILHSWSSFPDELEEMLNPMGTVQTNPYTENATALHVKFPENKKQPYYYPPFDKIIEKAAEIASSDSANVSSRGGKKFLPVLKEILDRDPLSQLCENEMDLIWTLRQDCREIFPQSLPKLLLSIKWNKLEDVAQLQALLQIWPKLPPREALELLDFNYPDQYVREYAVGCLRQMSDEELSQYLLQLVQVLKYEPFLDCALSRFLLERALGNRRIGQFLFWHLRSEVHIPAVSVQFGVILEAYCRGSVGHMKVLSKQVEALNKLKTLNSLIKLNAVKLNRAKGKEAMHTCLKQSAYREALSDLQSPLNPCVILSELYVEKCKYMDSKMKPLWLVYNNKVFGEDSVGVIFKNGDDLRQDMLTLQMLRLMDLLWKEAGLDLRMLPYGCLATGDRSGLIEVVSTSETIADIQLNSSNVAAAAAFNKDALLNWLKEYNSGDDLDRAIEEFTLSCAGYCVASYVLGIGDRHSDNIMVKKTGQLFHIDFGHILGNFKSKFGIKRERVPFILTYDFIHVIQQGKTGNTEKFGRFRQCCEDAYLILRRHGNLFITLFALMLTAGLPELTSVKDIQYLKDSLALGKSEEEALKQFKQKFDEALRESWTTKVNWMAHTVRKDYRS
Chain of PI3Kβ (P27986 whole entry partner, species assumed, canonical isoform): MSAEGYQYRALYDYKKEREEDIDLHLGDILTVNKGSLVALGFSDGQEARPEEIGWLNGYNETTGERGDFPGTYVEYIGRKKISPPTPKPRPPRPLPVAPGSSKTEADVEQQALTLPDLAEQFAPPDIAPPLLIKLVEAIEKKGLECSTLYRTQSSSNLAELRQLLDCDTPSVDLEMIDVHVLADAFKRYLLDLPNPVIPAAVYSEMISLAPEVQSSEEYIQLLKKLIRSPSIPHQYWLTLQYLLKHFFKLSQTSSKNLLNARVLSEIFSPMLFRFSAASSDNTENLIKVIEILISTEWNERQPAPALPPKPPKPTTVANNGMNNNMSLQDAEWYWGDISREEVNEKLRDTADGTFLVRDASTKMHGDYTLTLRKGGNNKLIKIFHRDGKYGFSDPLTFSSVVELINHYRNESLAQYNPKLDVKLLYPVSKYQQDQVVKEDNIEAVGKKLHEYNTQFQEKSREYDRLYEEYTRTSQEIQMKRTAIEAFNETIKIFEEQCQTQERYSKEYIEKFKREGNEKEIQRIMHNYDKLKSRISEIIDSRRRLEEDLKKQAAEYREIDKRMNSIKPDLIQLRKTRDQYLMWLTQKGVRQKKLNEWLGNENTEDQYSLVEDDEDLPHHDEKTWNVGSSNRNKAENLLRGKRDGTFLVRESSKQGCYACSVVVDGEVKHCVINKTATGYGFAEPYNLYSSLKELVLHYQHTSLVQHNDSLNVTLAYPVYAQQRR
Experimental: (§4) Enzymatic activity of PI3K isoforms: Enzymatic activity of the class I PI3K isoforms in the presence of the compounds of Table 1 was measured using ADP-Glo luminescent assay against PI3Kα, PI3Kβ, PI3Kδ and PI3Kγ with ATP concentration at 25 μM. IPI-549 was used as the reference compound. The compounds would be tested from 1 or 10 μM, 3-fold dilution for 10 doses, in duplicate.
as §1, §2, §3

[4] = target: PI3Kα (Homo sapiens, UniProt P42336); experiment: ADP-Glo luminescent assay, enzymatic activity of PI3K alpha; format: biochemical; conditions: ATP 25 μM; read-out: PI3K alpha (nM) inhibitory activity (IC50)
Chain of PI3Kα (P42336 whole entry, species assumed): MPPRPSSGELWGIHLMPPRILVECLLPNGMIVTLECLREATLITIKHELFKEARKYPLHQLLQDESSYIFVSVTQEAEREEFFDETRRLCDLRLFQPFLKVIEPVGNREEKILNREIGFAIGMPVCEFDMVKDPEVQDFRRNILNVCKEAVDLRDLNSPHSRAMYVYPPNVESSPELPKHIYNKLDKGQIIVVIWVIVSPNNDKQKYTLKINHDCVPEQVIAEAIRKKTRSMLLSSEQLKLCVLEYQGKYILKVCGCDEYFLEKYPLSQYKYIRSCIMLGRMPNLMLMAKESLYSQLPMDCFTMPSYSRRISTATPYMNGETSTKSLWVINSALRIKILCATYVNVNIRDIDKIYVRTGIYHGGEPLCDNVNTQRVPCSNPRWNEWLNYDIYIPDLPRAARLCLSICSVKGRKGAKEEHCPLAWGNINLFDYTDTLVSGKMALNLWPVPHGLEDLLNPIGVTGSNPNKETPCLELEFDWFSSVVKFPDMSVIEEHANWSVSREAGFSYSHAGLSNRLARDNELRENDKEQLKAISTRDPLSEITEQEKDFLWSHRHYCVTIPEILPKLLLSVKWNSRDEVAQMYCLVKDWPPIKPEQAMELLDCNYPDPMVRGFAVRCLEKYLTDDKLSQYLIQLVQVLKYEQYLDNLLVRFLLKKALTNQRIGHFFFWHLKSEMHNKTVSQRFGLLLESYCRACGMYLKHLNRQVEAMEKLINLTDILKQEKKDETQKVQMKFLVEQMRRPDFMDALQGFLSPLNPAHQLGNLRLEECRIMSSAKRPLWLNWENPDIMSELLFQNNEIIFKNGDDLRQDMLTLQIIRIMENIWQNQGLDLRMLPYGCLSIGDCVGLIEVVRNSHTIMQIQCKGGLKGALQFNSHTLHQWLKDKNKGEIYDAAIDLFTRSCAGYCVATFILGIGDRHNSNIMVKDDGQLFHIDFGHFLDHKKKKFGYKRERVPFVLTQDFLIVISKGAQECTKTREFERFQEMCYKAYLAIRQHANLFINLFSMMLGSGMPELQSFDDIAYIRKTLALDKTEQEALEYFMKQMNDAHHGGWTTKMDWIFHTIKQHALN
Chain of PI3Kα (P27986 whole entry partner, species assumed): as the sequence (P27986 whole entry partner, species assumed, canonical isoform) above
Experimental: as §4, §1, §2, §3

[5] = Kinetic solubility test in PBS pH7.4; format: physicochemical; conditions: for solubility at 2 h: aqueous buffer, kinetic from dmso stock, PBS pH 7.4, 25° C.
Experimental: 15 μL of stock solution (10 mM) was placed in order into their proper 96-well rack. 485 μL of PBS pH7.4 was added into each vial of the cap-less Solubility Sample plate. The assay was performed in singlet. Add one stir stick to each vial and seal using a molded PTFE/Silicone plug. […] After completion of the 2 hours, the samples from the Solubility Sample plate were transferred into the filter plate. all the samples were filtered using the Vacuum Manifold. Aliquot of 5 μL was taken from the filtrate followed by addition of 495 μL of a mixture of H2O and acetonitrile containing internal standard (1:1). A certain proportion of ultrapure water was used to dilute the diluent according to the peak shape. The dilution factor was changed according to the solubility values and the LC-MS signal response.
Preparation of 3 μM standards (STD): From the 10 mM DMSO STD plate, 6 μL was transferred into the remaining empty plate, and then 194 μL of DMSO was added to that plate to have a STD concentration of 300 μM. From the 300 μM DMSO STD plate, 5 μL was transferred into the remaining empty plate, and then 495 μL of a mixture of H2O and acetonitrile containing internal standard (1:1) was added to that plate to have a final STD concentration of 3 μM. A certain proportion of ultrapure water was used to dilute the diluent according to the peak shape. The concentrations of the standard samples were changed according to the LC-MS signal response.
Procedure for sample analysis: The plate was placed into the well plate autosampler. The samples were evaluated by LC-MS/MS analysis.
Data analysis: All calculations were carried out using Microsoft Excel.
The filtrate was analyzed and quantified against a standard of known concentration using LC coupled with mass spectral peak identification and quantitation. Solubility values of the test compound and control compound were calculated as follows:
[formula] • Any value of the compounds that was not within the specified limits was rejected and the experiment was repeated.

Chain of PI3Kδ (O00329 whole entry, species assumed, canonical isoform): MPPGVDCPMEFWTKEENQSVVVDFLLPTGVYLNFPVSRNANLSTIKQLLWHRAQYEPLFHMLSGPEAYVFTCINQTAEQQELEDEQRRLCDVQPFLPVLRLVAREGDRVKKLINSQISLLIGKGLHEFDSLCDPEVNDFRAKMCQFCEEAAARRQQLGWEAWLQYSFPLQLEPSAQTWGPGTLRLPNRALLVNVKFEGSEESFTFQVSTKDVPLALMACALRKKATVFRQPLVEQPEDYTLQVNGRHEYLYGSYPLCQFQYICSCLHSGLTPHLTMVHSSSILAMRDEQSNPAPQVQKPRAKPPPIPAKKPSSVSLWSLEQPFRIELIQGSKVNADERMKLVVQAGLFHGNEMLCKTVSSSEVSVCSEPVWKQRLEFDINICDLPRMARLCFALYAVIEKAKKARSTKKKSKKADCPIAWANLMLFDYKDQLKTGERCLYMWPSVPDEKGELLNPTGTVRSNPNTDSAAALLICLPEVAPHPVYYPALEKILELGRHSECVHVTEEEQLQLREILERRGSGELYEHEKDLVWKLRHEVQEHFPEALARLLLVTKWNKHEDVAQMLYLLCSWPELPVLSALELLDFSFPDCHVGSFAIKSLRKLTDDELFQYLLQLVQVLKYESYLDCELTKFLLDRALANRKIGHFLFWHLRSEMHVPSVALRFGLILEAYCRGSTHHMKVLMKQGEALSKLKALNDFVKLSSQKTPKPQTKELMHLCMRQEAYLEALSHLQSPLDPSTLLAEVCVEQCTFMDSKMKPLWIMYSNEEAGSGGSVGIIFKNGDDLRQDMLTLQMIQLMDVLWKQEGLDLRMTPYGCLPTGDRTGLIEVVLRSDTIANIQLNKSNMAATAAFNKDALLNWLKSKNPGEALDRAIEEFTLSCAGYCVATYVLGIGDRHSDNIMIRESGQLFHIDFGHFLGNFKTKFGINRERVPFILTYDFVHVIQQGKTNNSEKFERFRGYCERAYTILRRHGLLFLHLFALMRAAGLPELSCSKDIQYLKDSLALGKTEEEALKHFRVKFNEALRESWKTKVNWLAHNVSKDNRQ
Chain of PI3Kδ (P27986 whole entry partner, species assumed, canonical isoform): as the sequence (P27986 whole entry partner, species assumed, canonical isoform) above

IC50 [1] [nM]	F (%) oral bioavailability ([2]; beagle dogs) [%]	Vssobs ([2]; beagle dogs) [L/kg]	bioavailability [2] [%]	clearance ([2]; beagle dogs) [mL/min/kg]	half-life ([2]; beagle dogs) [h]	IC50 [3] [nM]	IC50 [4] [nM]	solubility at 2 h [5] [µM]	fold improvement over AZ-17 in kinetic solubility test ([5]; physiologic pH) [fold]	SMILES
1170	108	2.1	107	6.1	7.2	> 10000	3890	240 (≈ 108 µg/mL)	> 200	CC(=O)Nc1nc(C)c(-c2cc3c(c(NS(C)(=O)=O)n2)C(=O)N([C@@H](C)C2CC2)C3)s1 [Compound 20, (S)-N-(5-(2-(1-cyclopropylethyl)-4-(methylsulfonamido)-3-oxo-2,3-dihydro-1H-pyrrolo[3,4-c]pyridin-6-yl)-4-methylthiazol-2-yl)acetamide]
> 1000	–	2.7	> 68	4.5	9.1	> 10000	3330	9.6 (≈ 4.24 µg/mL)	–	CC(=O)Nc1nc(C)c(-c2cc3c(c(N4CCOCC4)n2)C(=O)N([C@@H](C)C2CC2)C3)s1 [Compound 34, (S)-N-(5-(2-(1-cyclopropylethyl)-4-morpholino-3-oxo-2,3-dihydro-M-pyrrolo[3,4-c]pyridin-6-yl)-4-methylthiazol-2-yl)acetamide]
